Experimental data reported in patent US9834542B2, “LXR modulators” (BRISTOL-MYERS SQUIBB COMPANY, priority 2013, dated 2017).

Molecular target: T1, LXRβ (Homo sapiens, UniProt P55055)
T1 construct: Co-transfection expression plasmids, comprising full-length LXRα (pCMX-h LXRα[…] or LXRβ (pCMX-hLXRβ)); expressed in transfected cells; host or cells: CV-1 African Green Monkey Kidney Cells
T1 sequence (P55055 1-460): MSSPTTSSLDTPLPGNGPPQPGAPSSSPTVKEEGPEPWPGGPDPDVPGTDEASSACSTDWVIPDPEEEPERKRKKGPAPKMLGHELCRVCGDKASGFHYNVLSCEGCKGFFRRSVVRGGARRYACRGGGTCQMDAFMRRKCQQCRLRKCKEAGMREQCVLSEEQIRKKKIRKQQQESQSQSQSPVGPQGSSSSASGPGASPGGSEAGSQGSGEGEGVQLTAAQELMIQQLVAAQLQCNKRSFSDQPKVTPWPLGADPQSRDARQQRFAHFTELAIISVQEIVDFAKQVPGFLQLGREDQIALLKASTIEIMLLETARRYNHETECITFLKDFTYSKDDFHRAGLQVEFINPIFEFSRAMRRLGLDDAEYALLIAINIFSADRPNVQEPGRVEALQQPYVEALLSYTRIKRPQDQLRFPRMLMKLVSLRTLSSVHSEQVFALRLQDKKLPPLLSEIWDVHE
T1 sequence (P19793 1-462 partner): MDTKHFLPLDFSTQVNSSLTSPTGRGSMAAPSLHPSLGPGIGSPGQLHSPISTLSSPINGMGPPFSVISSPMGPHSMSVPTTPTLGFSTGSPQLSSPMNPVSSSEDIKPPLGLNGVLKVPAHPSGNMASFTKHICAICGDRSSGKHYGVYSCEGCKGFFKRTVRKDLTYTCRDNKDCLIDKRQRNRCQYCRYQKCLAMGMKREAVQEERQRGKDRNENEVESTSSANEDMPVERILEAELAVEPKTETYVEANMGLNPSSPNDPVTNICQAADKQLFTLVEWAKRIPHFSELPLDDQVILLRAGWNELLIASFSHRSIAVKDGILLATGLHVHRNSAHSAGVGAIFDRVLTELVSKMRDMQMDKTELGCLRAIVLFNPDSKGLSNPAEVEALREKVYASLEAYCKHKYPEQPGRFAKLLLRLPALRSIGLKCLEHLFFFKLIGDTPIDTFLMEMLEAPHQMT
Assay: Co-transfection assay (LXRE luciferase reporter), LXRβ
Format: cell-based
Details: for EC50: CV-1 cells transfected with pCMX-hLXRβ and LXREx1-Tk-Luciferase, 20 hours incubation; for Emax: LXRβ co-transfection, relative to high control 1-(2,4-difluorobenzyl)-2-oxo-6-(4-phenoxyphenyl)-4-(trifluoromethyl)-1,2-dihydropyridine-3-carbonitrile, read-out: % Efficacy
Description: To measure the ability of compounds to activate or inhibit the transcriptional activity of LXR in a cell based assay, the co-transfection assay was used. It has been shown that LXR functions as a heterodimer with RXR. For the co-transfection assay, expression plasmids for LXRα and LXRβ are introduced separately via transient transfection into mammalian cells along with a luciferase reporter plasmid that contains one copy of a DNA sequence that is bound by LXR-RXR heterodimers (LXRE; Willy, P. et. al. 1995). LXRs heterodimerize with the endogenous RXR. Treatment of transfected cells with an LXR agonist increases the transcriptional activity of LXR, which is measured by an increase in luciferase activity.
CV-1 African Green Monkey Kidney Cells
Co-transfection expression plasmids, comprising full-length LXRα (pCMX-h LXRα[…] or LXRβ (pCMX-hLXRβ), reporter plasmid (LXREx1-Tk-Luciferase), and control (pCMX-Galactosidase expression vector) (Willey et al. Genes & Development 9 1033-1045 (1995)).
CV-1 cells were prepared 24 hours prior to the experiment by plating them into T-175 flasks or 500 cm^2 dishes in order to achieve 70-80% confluency on the day of the transfection. The number of cells to be transfected was determined by the number of plates to be screened. Each well of a 384 well plate requires 1.5×10^4 cells. DNA Transfection Reagent was prepared by mixing the required plasmid DNAs with a cationic lipid transfection reagent Transit 2020 (Mirus Bio) for CV1 by following the instructions provided with the reagents. Optimal DNA amounts were determined empirically per cell line and size of vessel to be transfected. For each T175 cm^2 flask a total of 59 ug for CV1 of DNA, 133 uL Transit2020 and 4.5 mL DMEM for CV1 was mixed and added. Cells were then incubated at least 5 hours at 37° C. to prepare screening cells.
Luciferase assay reagent (*Steady-Glo Luciferase Assay System by Promega, CAT#E2550) was prepared by combining before use:
Assay plates were prepared by dispensing 5 μL of compound per well of a 384 well plate to achieve final compound concentration of 10 μM and no more than 0.5% DMSO. Media was removed from the screening cells, the cells trypsinized, harvested cells by centrifugation, counted, and plated at a density of approximately 1.5×10^4 cells in the 384 well assay plate prepared above in a volume of about 95 uL. Assay plates containing both compounds and screening cells (100 μL in total volume) were incubated for 20 hours at 37° C.
After incubation with compounds, media was removed from the cells and luciferase assay reagent (50 μL/well) added. After ˜2 minutes at ambient temperature, the assay plates were read on a luminometer (PE Biosystems Northstar reader with on-board injectors, or Envision(Perkin Elmer) or equivalent).
The LXR/LXRE co-transfection assay can be used to establish the EC50/IC50 values for potency and percent activity or inhibition for efficacy. Efficacy defines the activity of a compound relative to a high control 1-(2,4-difluorobenzyl)-2-oxo-6-(4-phenoxyphenyl)-4-(trifluoromethyl)-1,2-dihydropyridine-3-carbonitrileor a low control (DMSO/vehicle). The dose response curves are generated from a 11 point curve with concentrations differing by ½ LOG units. Each point represents the average of 2 wells of data from duplicate 384 well plate.
The data from this assay is fitted to the following equation, from which the EC50 value may be solved: Y=Bottom+(Top−Bottom)/(1+10^((logEC50-X)*HillSlope)).
The EC50/IC50 is therefore defined as the concentration at which an agonist or antagonist elicits a response that is halfway between the Top (maximum) and Bottom (baseline) values. The EC50/IC50 values represented are the averages of at least 2 and normally 3 independent experiments. […]

Cc1nc(-c2cc(-c3cccc(S(C)(=O)=O)c3)ccc2-n2cc(C(F)(F)F)nc2C)c(-c2cccc(OC(F)(F)C(F)(F)F)c2)o1 [Example 574, 2-methyl-4-(4-(2-methyl-4-(trifluoromethyl)-1H-imidazol-1-yl)-3′-(methylsulfonyl)-[1,1′-biphenyl]-3-yl)-5-(3-(perfluoroethoxy)phenyl)oxazole]
EC50: 233 nM
Emax: 63%

Cc1nc(C(F)(F)F)cn1-c1ccc(-c2cc(F)c(CO)c(S(C)(=O)=O)c2)cc1-n1nncc1-c1ccc2c(c1)OC(F)(F)O2 [Example 52, {3′-[5-(2,2-difluoro-1,3-benzodioxol-5-yl)-1H-1,2,3-triazol-1-yl]-3-fluoro-5-(methylsulfonyl)-4′-[2-methyl-4-(trifluoromethyl)-1H-imidazol-1-yl]biphenyl-4-yl}methanol]
EC50: 172 nM
Emax: 82%

Cc1nc(-c2cc(-c3cc(F)c(CO)c(S(C)(=O)=O)c3)ccc2-n2cc(C(F)(F)F)nc2C)c(-c2ccc(Cl)cc2Cl)o1 [Example 488, (3′-(5-(2,4-dichlorophenyl)-2-methyloxazol-4-yl)-3-fluoro-4′-(2-methyl-4-(trifluoromethyl)-1H-imidazol-1-yl)-5-(methylsulfonyl)biphenyl-4-yl)methanol]
EC50: 17 nM
Emax: 66%

CCC(F)(F)c1cn(-c2ccc(-c3cccc(S(N)(=O)=O)c3)cc2-n2nncc2-c2ccc(OC(F)(F)F)cc2)c(C)n1 [Example 183, 4′-[4-(1,1-difluoropropyl)-2-methyl-1H-imidazol-1-yl]-3′-(5-{4-[(trifluoromethyl)oxy]phenyl}-1H-1,2,3-triazol-1-yl)biphenyl-3-sulfonamide]
EC50: 1480 nM
Emax: 74%

Cc1nc(C(F)F)cn1-c1ccc(-c2cc(Cl)c(CO)c(S(C)(=O)=O)c2)cc1-n1nncc1-c1ccc(OC(F)(F)F)cc1 [Example 158, {3-chloro-4′-[4-(difluoromethyl)-2-methyl-1H-imidazol-1-yl]-5-(methylsulfonyl)-3′-(5-{4-[(trifluoromethyl)oxy]phenyl}-1H-1,2,3-triazol-1-yl)biphenyl-4-yl}methanol]
EC50: 1410 nM
Emax: 88%

Cc1nc(C(F)(F)F)cn1-c1ccc(-c2cccc(S(C)(=O)=O)c2)cc1-n1nncc1-c1ccc(OC(F)(F)F)cc1Cl [Example 68, 5-{2-chloro-4-[(trifluoromethyl)oxy]phenyl}-1-{3′-(methylsulfonyl)-4-[2-methyl-4-(trifluoromethyl)-1H-imidazol-1-yl]biphenyl-3-yl}-1H-1,2,3-triazole]
EC50: 307 nM
Emax: 80%

Cc1nc(C(F)(F)F)cn1-c1ccc(-c2cccc(S(C)(=O)=O)c2)cc1-n1nncc1Cc1ccc(Cl)c(Cl)c1 [Example 115, 5-[(3,4-dichlorophenyl)methyl]-1-{3′-(methylsulfonyl)-4-[2-methyl-4-(trifluoromethyl)-1H-imidazol-1-yl]biphenyl-3-yl}-1H-1,2,3-triazole]
EC50: 920 nM
Emax: 79%

Cc1nc(C(F)(F)F)cn1-c1ccc(-c2cccc(S(C)(=O)=O)c2)cc1-n1nncc1-c1ccc2[nH]ccc2c1 [Example 45, 5-(1-{3′-(methylsulfonyl)-4-[2-methyl-4-(trifluoromethyl)-1H-imidazol-1-yl]biphenyl-3-yl}-1H-1,2,3-triazol-5-yl)-1H-indole]
EC50: 1840 nM
Emax: 53%

Cc1nc(-c2cc(-c3cc(F)c(CO)c(S(C)(=O)=O)c3)ccc2-n2cc(C(F)(F)F)nc2C)c(-c2ccc(Cl)nc2)o1 [Example 551, (3′-(5-(6-chloropyridin-3-yl)-2-methyloxazol-4-yl)-3-fluoro-4′-(2-methyl-4-(trifluoromethyl)-1H-imidazol-1-yl)-5-(methylsulfonyl)-[1,1′-biphenyl]-4-yl)methanol]
EC50: 522 nM
Emax: 79%
